Test: log P, partitioning coefficient of the fluorescer between octanol and water
Format: physicochemical
Settings: octanol/water at ambient temperature
Text: We have found the fluorescers of the present invention to be very effective when used with carbon dioxide whilst the fluorescers are readily soluble in carbon dioxide without the need for surfactants. A preferable selection of fluorescers can be described by their log P value. Log P being the partitioning coefficient of the fluorescer between octanol and water at ambient temperature, whereby P is the concentration of the fluorescer in octanol divided by the concentration of fluorescer in water. (Leo et al. Chem Rev 1971, 71, 525). If appropriate, the log P is determined in the presence of sodium and/or chloride as counterions. Accordingly, a preferred group of fluorescer has a log P of at least 2, more preferably at least 2.5. In many cases, the log P may also be estimated using specially designed programs, also described as clog P or calculated log P. However, if in certain cases these programs are inappropriate, the real log P should be measured.

Structure (SMILES): c1ccc2oc(-c3ccc(-c4nc5ccccc5o4)s3)nc2c1 [Tinopal™ SOP]
- log P: > 2.5

From patent publication US20020082180A1, “Fabric cleaning system” (Unilever Home & Personal Care USA, Division of Conopco, Inc., priority 2000, published 2002)
